Experimental data published in patent US7601687B2, “Mechanism for identifying drugs for the treatment of type II diabetes” (BioCrine AB, priority 2006, dated 2009).

Experiments:
[1] = system: rat insulin-I gene promoter; experiment: On-line monitoring of insulin promoter-driven DsRed/GFP expression (prIns1.DsRed) in transfected HIT-T15 cells and islet cells; format: cell-based, hamster (HIT-T15), rat (islet cells); details: for effect of inhibitor on insulin-stimulated insulin gene transcription / insulin promoter activity: 25 μM LY294002, 10 nM rapamycin, 400 nM AC, 100 μM HNMPA-(AM)3
Description: Construction of prIns1.GFP has been described earlier (Leibiger et al., 1998a). Vector prIns1.DsRed was generated by exchanging the EGFP-expression cassette versus the DsRed-expression cassette obtained from pDsRed1-1 (Clontech). Plasmid prβGK.GFP (i.e. prβGK-278.GFP) was generated by exchanging the CAT-SV40pA-expression cassette of prβGK-278.CAT (Leibiger et al., 1994a) versus the EGFP-bGHpA-expression cassette obtained from pRcCMVI.GFP (Moede et al., 1999). […] All vector constructions were verified by DNA sequence analysis. Constructs for expression of the human Insulin Receptor A and B types, pCMVHIR(A) and pCMVHIR(B) and the control plasmid pCMVstop were kindly provided by Dr. A. Ullrich (Max-Planck-Institute for Biochemistry, Martinsried, Germany). Expression constructs pCMV5.PKBα, pCMV5.PKBαΔ308/437, pCMV5.PDK1 and pCMV5.PDK1-antisense were kindly provided by Drs. P. Cohen and D. R. Alessi (MRC Phosphorylation Unit, University of Dundee, UK).
(§1) Insulin-producing HIT-T15 cells were obtained from ATCC. HIT cells were reported to show glucose responsiveness at subphysiological concentrations between 0.1 and 2 mM (Sharma et al., 1995). HIT cells were grown in RPMI 1640 medium supplemented with 100 units/ml penicillin, 100 μg/ml streptomycin, 2 mM glutamine and 10% fetal calf serum at 5% CO2 and 37° C. Pancreatic islets were isolated from normally fed male Wistar rats and from mice by collagenase digestion. Isolated islets were incubated overnight at 5% CO2 and 37° C. in RPMI 1640 medium, supplemented as described above. Transfection of HIT-T15 and islet cells was performed overnight by the lipofectamine technique in RPMI 1640 medium, without serum and antibiotics. For on-line monitoring, cells were grown and transfected on 24-mm glass coverslips. Following transfection, HIT cells were cultured for 12-18 h in RPMI 1640 medium containing 0.1 mM glucose, 10% fetal calf serum and supplemented as above. Before stimulation, islets and islet cells were incubated for 2 h in RPMI 1640 medium, supplemented as above but containing 3 mM glucose. All expression constructs were prepared using the Qiagen Plasmid Maxi Kit (Qiagen), except those used to produce the adenoviruses which where purified by ultracentrifugation via a CsCI-gradient (as described in Sambrook et al, 1989).
(§2) All experiments were performed in RPMI 1640 medium, supplemented as above. Protein kinase inhibitors, antibodies or nifedipine were added to the culture medium 30 min prior to stimulation and were kept in the medium throughout stimulation. After stimulation islets, islet cells and HIT cells were cultured further at substimulatory glucose concentrations (0.1 mM for HIT cells and 3 mM for islets and islet cells). For RNA-analysis, islets and cells were harvested 60 min after start of stimulation, if not indicated otherwise. For analysis of protein kinase activities or tyrosine phosphorylation, cells were harvested immediately following stimulation.
Detection of fluorescence by digital imaging fluorescence microscopy was performed as described previously (Leibiger et al., 1998a; Leibiger et al., 1998b). Briefly, transfected cells were grown on 24-mm glass coverslips. After stimulation the coverslips were placed into a perifusion chamber which was mounted on an inverted microscope (Zeiss Axiovert 135TV). Temperature was kept at 37° C. and the cells were perfused with RPMI 1640 medium. The objective lens used was a Zeiss-Fluar ×40/1.30 oil Imm Korr. Fluorescence imaging was performed with a cooled charged-coupled device camera (CH250 with KAF 1400, Photometrics, Tucson, Ariz.) connected to an imaging system (Inovision) with fluorescence excitation from a SPEX fluorolog-2 CM1T11I spectrofluorometer (Spex Industries). The following filter-settings were used: for GFPs65T: excitation at 485 nm, a 505 nm dicroic mirror and an emission band-pass filter of 500-530 nm; for DsRed: excitation at 558 nm, a 565 nm dicroic mirror and a 580 nm long-pass filter for emission […]

[2] = system: βGK mRNA; experiment: βGK mRNA steady-state levels (comparative RT-PCR) in cultured pancreatic islets / insulin-producing cells; format: cell-based, rat
Description: as §1, §2
RNA Analysis Levels of βGK mRNA were analyzed by RNase-protection assays and comparative RT-PCR. […] Quantification of the protected complexes was performed by phosphorimaging. […] Levels of μGK mRNA were analyzed by RT-PCR using primers 5′-[…]-3′(SEQ ID NO: 1) and 5′-[…]-3′(SEQ ID NO: 2) for characterizing μGK mRNA in HIT cells and primers 5′-[…]-3′(SEQ ID NO: 3) and 5′-[…]-3′(SEQ ID NO: 4) for μGK mRNA in rat and mouse pancreatic islets and islet cells. Levels of μ-actin mRNA were analyzed by RT-PCR using primers 5′-[…]-3′(SEQ ID NO: 5) and 5′-[…]-3′(SEQ ID NO: 6). […] PCR products were separated on a 6% polyacrylamide sequencing gel and analyzed by phosphorimaging. […]

Row | Compound | effect of inhibitor on insulin-stimulated insulin gene transcription / insulin promoter activity ([1]; 5 mU/ml insulin) | insulin promoter-driven DsRed fluorescence upon insulin stimulation ([1]; 5 mU/ml insulin, co-transfected cells) | amount of exogenous insulin necessary to trigger insulin gene promoter activity ([1]; transfected HIT-T15 cells, supplemented culture medium (FIG. 4B)) | exogenous insulin sufficient to evoke βGK mRNA levels ([2]; pancreatic islets, fully supplemented culture medium, substimulatory glucose) | effect of inhibitor on insulin-stimulated βGK mRNA steady-state levels ([2]; 5 mU/ml insulin, 400 nM AC, FIG. 5B)
1 | CC(=O)OCOC(c1ccc2ccccc2c1)P(=O)(OCOC(C)=O)OCOC(C)=O (stereo not drawn) [HNMPA-(AM)3] | abolished | – | – | – | –
2 | insulin | – | elevation | 5-10 μU insulin per ml | 50 μU insulin per ml | –
3 | autocamtide-2 related inhibitory peptide | abolished | – | – | – | altered neither
